Data set [1] is described as follows: Solubility in PBS. The data set is classed as physicochemical. As to conditions: PBS pH 7.4, room temperature. As for the experimental part: To study the solubility of the compounds in PBS.
About 2 mg of the compound was weighed, an appropriate amount of a PBS solution was added, and the mixture was dissolved clear by ultrasonication for 10 seconds. No precipitation was found after standing at room temperature overnight.

Data set [2] concerns activation of STAT3 phosphorylation by hIL23 in DB cells. Kind of data set: Blocking the activation of STAT3 phosphorylation by hIL23 in DB cells (p-STAT3 ELISA). The data set is classed as cell-based, Human. As to conditions: DB cells stimulated by rhIL-23 0.5 nM, half an hour; read-out: pStat3 IC50. As for the experimental part: To determine the inhibitory activity of the compounds of the present disclosure on the activation of STAT3 phosphorylation by hIL23 in DB cells
The compounds produced above were added to DB (ATCC Cat #CRL-2289) cells to inhibit the signal transduction of rhIL-23 cytokine. The screening of compounds was carried out by a multi-well plate (suitable for ELISA assay). Generally, in the presence of some of the above compounds of the present disclosure, 6.25×10^6 cells/ml of DB cells were stimulated by rhIL-23 (0.5 nM, R&D SYSTEMS) in RPMI medium (Invitrogen) containing 10% of FBS, and after half an hour, lysis was carried out on ice using 50 μL of 2×lysis buffer (CST). The content of p-STAT3 in the lysate was determined by PathScan Phospho-Stat3 (Tyr705) Sandwich ELISA Kit (CST Cat #7300C), so as to calculate the activity of the compounds of the present disclosure in blocking rhIL23 signal transduction in DB cells.
The inhibition rate was calculated as follows: […]
By using log (inhibitor) vs. response—Variable slope (four parameters) in Graphpad, the data of ELISA experiment results were subjected to non-linear regression fitting to fit a curve and obtain the IC50 value.
In general terms: ELISA stands for enzyme-linked immunosorbent assay.

The test system of data set [3] is IL23-induced rat otitis model. Kind of data set: In vivo pharmacodynamics in IL23-induced rat otitis model (ear thickening). Further details: species or system SD rats. As to conditions: 10 mg/kg, gavage, QD. The text has this:
To evaluate the in vivo efficacy of the compounds in an IL23-induced rat otitis model.
SD rats, 6-8 weeks old, male, purchased from Jiangsu GemPharmatech Co., Ltd.
• a. […]

SMILES strings stand for the structures.

One may read the solubility as the dissolved amount per volume that the medium holds. The low end stands for little dissolved substance, the high end for much dissolved substance. Usually IC50 stands for the concentration that inhibits the measured activity by half. `CC(=O)NCCCC[C@@H]1NC(=O)[C@H](Cc2c[nH]c3c(C)cccc23)NC(=O)[C@H]([C@@H](C)O)NC(=O)[C@H](CC(N)=O)NC(=O)[C@@H](NC(C)=O)C(C)(C)SSC(C)(C)[C@@H](C(=O)N[C@@H](Cc2ccc(OCCN)cc2)C(=O)N[C@@H](Cc2ccc3ccccc3c2)C(=O)NC2(C(=O)N[C@@H](CCC(=O)O)C(=O)N[C@@H](CC(N)=O)C(=O)N[C@@H](Cc3cccnc3)C(=O)N(C)CCNC(=O)CCOCCOCC[N+](C)(C)CCNC(=O)COCCOCCNC(=O)COCCOCCNC(=O)CC[C@H](NC(=O)CCCCCCCCCCCCCCC(=O)O)C(=O)O)CCC(F)(F)CC2)NC1=O` [Example 1-16-1] came in with a solubility in data set [1] of 39.6 to 59.4 mg/mL. Besides, the IC50 in data set [2] worked out at 4.8 pM. In addition, in data set [3], the “Inhibition rate on Day 4 (ear thickening)” value was 70.77%.

Source of the values: patent US20260193294A1, “POLYPEPTIDE INHIBITOR, AND PREPARATION METHOD THEREFOR AND USE THEREOF” (SHANGHAI HANSOH BIOMEDICAL CO., LTD., priority 2022, published 2026).
